Patent US12383534B2, “Methods for treating cancer” (REGENTS OF THE UNIVERSITY OF MINNESOTA, priority 2021, dated 2025)

Columns and labels:
[1] = test system: NCC-CDS-X1 cells (CIC-DUX4 sarcoma cell line); assay: Cell viability (ATP) assay in NCC-CDS-X1 cells; format: cell-based, human
Procedure: Basal media were purchased from HyClone, fetal bovine serum (FBS) was from PeakSerum (Ps-FB3, lot 293Q16), and Glutamax (Glu) and Penicillin/Streptomycin (P/S) were from GIBCO. NCC-CDS-X1 (CIC-DUX4 sarcoma cell line, a generous gift from Tadashi Kondo) cell line was cultured in RPMI with 10% FBS, Glu and P/S, Kitra-SRS (CIC-DUX4 sarcoma cell line, a generous gift from Hidetatsu Otani), 3T3, 293T and C2C12 cell lines were cultured in DMEM/10% FBS/Glu/P/S. The immortalized human myoblast LHCN-M2 cell line was cultured in proliferation medium: F10 supplemented with 20% FBS, 2-mercaptoethanol 1× (GIBCO), 10^−9 M dexamethasone (Sigma), 10 ng/mL bFGF (Peprotech), and Glu/P/S. All cells were cultured at 37° C. in a 5% CO2 atmosphere.
(§1) Cell lines were plated in a 96 well dish (1×10^5 cells/well), and the following day were treated with iP300w or its stereoisomers. ATP assays were performed using CellTiter-Glo® Luminescent Cell Viability Assay (Promega) according to the manufacturer's instructions. Luminescence was analyzed on POLARstar Optima Microplate Reader (BMG Labtech, Offenburg, Germany).
The activity of the various iP300w stereoisomers against NCC-CDS-X1 cells was evaluated. Cultures were treated with serial dilutions, ranging from 0.003 μM to 3.0 μM, for up to 96 hours. In cells treated with iP300w, a significant decrease in cell viability was evident at the lowest concentration (0.003 μM) at 48 and 96 hours (FIG. 3A). The effect was dose- and time-dependent. […] (FIG. 2B and FIG. 9).

[2] = test system: CIC-DUX4 target genes ETV1, 4, and 5; assay: RT-qPCR for CIC-DUX4 target genes in NCC-CDS-X1 cells; format: cell-based, human; details: NCC-CDS-X1, 24 hours, 0.03 and 0.3 μM
Procedure: (§2) RNA was extracted using an RNA extraction kit (Zymo) and cDNA was made using 0.5 μg total RNA with oligo-dT primer and Verso cDNA Synthesis Kit (Thermo Scientific) following the manufacturer's instructions. qPCRs were performed by using Premix Ex Taq (Probe qPCR, Takara) or SYBR-green. Gene expression levels were normalized to that of GAPDH and analyzed with 7500 System Software using the ACT method (Applied Biosystems). RNA-seq library preparation was done with 500 ng total RNA from NCC-CDS-X1 cells treated for 4 or 24 hours with iP300w (0.3 μM) using the Swift Rapid RNA Library Kit (SwiftBioscience). 36 base paired-end sequencing was performed on an Illumina NextSeq instrument at the University of Minnesota Genomics Center.
Next, the effect of the stereoisomers on the CIC-DUX4 target genes in cells cultured with the compounds for 24 hours was analyzed.

[3] = test system: NCC-CDS-X1 cells; assay: Immunofluorescence for Ki-67 in NCC-CDS-X1 cells; format: cell-based, human; details: NCC-CDS-X1, 24 hours, 0.3 μM
Procedure: For western blot analyses, cells were lysed with RIPA buffer supplemented with protease inhibitor cocktail (Complete, Roche), and proteins were separated on 10% SDS-PAGE gels, then transferred to PVDF membranes. Antibodies were diluted in 5% skim milk in TBST and incubated overnight at 4° C. or 1 hour at RT. An appropriate secondary HRP conjugated antibody was incubated for 1 hour at RT. Membranes were then washed with TBST, and signal was visualized using Pierce ECL western blotting substrate (Thermo Scientific). For immunofluorescence, cells cultured in 96 well plates were fixed in 4% PFA for 10 min., washed twice with PBS, permeabilized with 0.3% Triton X for 30 min, and blocked with 3% BSA for 1 hour at R/T. Primary antibodies were diluted in 3% BSA and incubated o/n at 4° C. An appropriate conjugated secondary antibody was applied for 60 min at RT. Nuclei were visualized using DAPI (1:5000, Sigma). […]

[4] = test system: Ewing sarcoma cell lines (AF573, TC71, A673); assay: Cell viability (ATP) assay in Ewing sarcoma cell lines; format: cell-based; details: 0.003 and 0.03 μM, 48 hours
Procedure: as §1
To determine whether iP300w was particularly active against CDS cells, vis-à-vis other related cancer cell lines, viability of 3 different Ewing sarcoma (ES) cell lines and several different immortalized cell lines treated with iP300w were compared. […] Furthermore, gene expression analyses confirmed the specificity of iP300w to CDS.

[5] = test system: ETV1, 4, and 5 in 3T3-CIC-DUX4, C2C12-CIC-DUX4 and LHCN-CIC-DUX4 cell lines; assay: RT-qPCR for CIC-DUX4 target genes in cell lines overexpressing CIC-DUX4; format: cell-based, mouse and human; details: each CIC-DUX4 overexpressing cell line, 18 hours
Procedure: Viral supernatants were produced in 293T cells. For transducing mouse cells (3T3 and C2C12), the CIC-DUX4 expression vector was packed with pCL-Eco, and for infecting human cells (293T, LHCN-M2) with psPAX2 and pMD2.G using FUGENE 6 (Roche). Viral supernatant was collected at 48 hours and 72 hours post-transfection and applied to the cells. Two days post-infection GFP positive cells were sorted using a BD FACSAria II. Established cell lines were tested for CIC-DUX4 expression by immunofluorescence and RT-qPCR.
as §2, with “Center. […]” for “Center.”

In the case of `CNC(=O)Cn1cc(-c2ccc3c(c2)[C@H](F)C[C@]32NC(=O)N(CC(=O)N(Cc3ccc(F)cc3)[C@@H](C)C(F)(F)F)C2=O)cn1` (single isomer, unassigned) [iP300w], the “effective concentration on CDS cells” value ([1]; CDS cells, studies herein) is reported as 0.003 µM, the “lowest concentration with significant decrease in cell viability” value ([1]; NCC-CDS-X1, 48 and 96 hours, serial dilutions 0.003 to 3.0 μM) is reported as 0.003 µM and the “lowest effective concentration in cell viability assay” value ([1]; NCC-CDS-X1, day 2) is reported as 0.003 µM. For the same molecule, the “activity relative to A-485 in the cell-based assays” value ([1]; cell-based assays) was “about two orders of magnitude more active than A-485”, the “down-regulation of direct CIC-DUX4 targets ETV1, 4, and 5” value [2] was “Significant down-regulation” and the Ki-67 positive staining [3] was “almost complete absence of Ki-67 positive staining”. The “effect on cell viability” value [4] was “only effective for CIC-DUX4 driven sarcomas and not for the other cell lines” and the “effect on CIC-DUX4-induced ETV1, 4, and 5” value [5] was “reversible”.
